Among the data in PubChem BioAssay AID330 (DTP/NCI, 2004) are T/C values, retold here.

Where “and” joins values, the source holds several entries; their conditions need not be identical. Identical values can stand only once. Inconclusive results and toxic doses are left out. Square brackets hold non-standard residues; d marks the D form. Peptide text beside a SMILES is read from it. Nle = CCCC[CH](N)C(=O)O

The test has as its system P388 leukemia ip, CD2F1 mice, survival T/C. Put plainly: NCI In Vivo Anticancer Drug Screen. Data for tumor model P388 Leukemia (intraperitoneal) in CD2F1 (CDF1) mice. As to conditions: endpoint: median survival time, higher = longer survival. In a few lines: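 Mice carrying the transplanted tumor received test compound or vehicle. Survival was recorded in each group, and the value is the treated-group measurement divided by that of the vehicle-treated control group.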

Where [1] appears, read: dose: 100.0 mg/kg/injection, schedule: Q01DX001 (ip), vehicle: saline with Tween-80.
Where [2] appears, read: dose: 50.0 mg/kg/injection, schedule: Q01DX009 (ip), vehicle: saline with Tween-80.
The mark [3] stands for this setting: dose: 100.0 mg/kg/injection, schedule: Q01DX009 (ip), vehicle: saline with Tween-80.
The mark [4] stands for this setting: dose: 200.0 mg/kg/injection, schedule: Q01DX009 (ip), vehicle: saline with Tween-80.
[5] abbreviates: dose: 100.0 mg/kg/injection, schedule: Q01DX009 (ip), vehicle: saline.

For `CN(CCCCN(C)CCOS(C)(=O)=O)CCOS(C)(=O)=O`, the T/C reads like this: (dose: 0.05 mg/kg/injection, schedule: Q01DX009 (ip), vehicle: saline) 157 % of control; (dose: 0.1 mg/kg/injection, schedule: Q01DX009 (ip), vehicle: saline) 178 % of control; (dose: 0.3 mg/kg/injection, schedule: Q01DX009 (ip), vehicle: saline) 156 % of control; (dose: 0.6 mg/kg/injection, schedule: Q01DX009 (ip), vehicle: saline) 156 % of control; (dose: 0.8 mg/kg/injection, schedule: Q04DX003 (ip), vehicle: saline) 168 % of control; (dose: 1.2 mg/kg/injection, schedule: Q04DX003 (ip), vehicle: saline) 172 % of control. Further, the T/C reads like this: (dose: 1.25 mg/kg/injection, schedule: Q01DX009 (ip), vehicle: saline) 230 % of control; (dose: 1.25 mg/kg/injection, schedule: Q04DX003 (ip), vehicle: saline with Tween-80) 180 % of control; (dose: 1.8 mg/kg/injection, schedule: Q04DX003 (ip), vehicle: saline) 181 % of control; (dose: 2.5 mg/kg/injection, schedule: Q04DX003 (ip), vehicle: saline with Tween-80) 176 % of control; (dose: 5.0 mg/kg/injection, schedule: Q04DX003 (ip), vehicle: saline with Tween-80) 200 % of control; (dose: 5.0 mg/kg/injection, schedule: Q04DX003 (ip), vehicle: saline) 204 % of control. For the same molecule, the T/C (dose: 10.0 mg/kg/injection, schedule: Q04DX003 (ip), vehicle: saline) was 86 % of control.

For `Cc1[nH]c(-c2ccccc2)c2[nH]c(=O)n(-c3ccccc3)c(=O)c12`, the T/C (dose: 100.0 mg/kg/injection, schedule: Q04DX003 (ip), vehicle: Klucel (hydroxypropylcellulose) (HPC)) was 93 % of control; the T/C (dose: 200.0 mg/kg/injection, schedule: Q04DX003 (ip), vehicle: Klucel (hydroxypropylcellulose) (HPC)) was 98 % of control; the T/C (dose: 400.0 mg/kg/injection, schedule: Q04DX003 (ip), vehicle: Klucel (hydroxypropylcellulose) (HPC)) was 93 % of control.

Take `O=C(N1CCC2(CC1)SSC1(CCN(C(=O)C(F)(F)F)CC1)S2)C(F)(F)F`: the T/C was 87 % of control (dose: 100.0 mg/kg/injection, schedule: Q04DX003 (ip), vehicle: saline with Tween-80) and 91 % of control (dose: 200.0 mg/kg/injection, schedule: Q04DX003 (ip), vehicle: saline with Tween-80).

In the case of `Cc1cc(=O)n2c(-c3ccc(Cl)cc3)csc2n1`, the T/C is, setting by setting: (dose: 25.0 mg/kg/injection, schedule: Q04DX002 (ip), vehicle: Klucel (hydroxypropylcellulose) (HPC)) 90 % of control; (dose: 50.0 mg/kg/injection, schedule: Q04DX002 (ip), vehicle: Klucel (hydroxypropylcellulose) (HPC)) 101 % of control; (dose: 100.0 mg/kg/injection, schedule: Q04DX002 (ip), vehicle: Klucel (hydroxypropylcellulose) (HPC)) 102 % of control.

On to `Clc1cc2[nH]ccc2c(Cl)n1`, for which the T/C by setting is: (dose: 50.0 mg/kg/injection, schedule: Q01DX001 (ip), vehicle: saline with Tween-80) 90 % of control; under setting [1], 92 % of control.

As to `CC(C)[S][Pb]([c]1ccccc1)([c]1ccccc1)[c]1ccccc1`, the T/C by setting is: (dose: 1.25 mg/kg/injection, schedule: Q01DX009 (ip), vehicle: gum acacia) 116 % of control; (dose: 2.5 mg/kg/injection, schedule: Q01DX009 (ip), vehicle: gum acacia) 118 % of control; (dose: 5.0 mg/kg/injection, schedule: Q01DX009 (ip), vehicle: gum acacia) 111 % of control; (dose: 6.25 mg/kg/injection, schedule: Q04DX003 (ip), vehicle: gum acacia) 97 % of control; (dose: 12.5 mg/kg/injection, schedule: Q04DX003 (ip), vehicle: gum acacia) 104 % of control.

On to `O=c1c2ccccc2[nH]c(=S)n1-c1cccc(C(F)(F)F)c1`, for which the T/C is 92 % of control under setting [2], 94 % of control under setting [3] and 100 % of control under setting [4].

With `O=C(O)C1CCCC2C(O)CCC(=O)C12` (stereo not drawn), the T/C is, setting by setting: (dose: 100.0 mg/kg/injection, schedule: Q04DX003 (ip), vehicle: saline) 105 % of control; (dose: 200.0 mg/kg/injection, schedule: Q04DX003 (ip), vehicle: saline) 110 % of control; (dose: 400.0 mg/kg/injection, schedule: Q04DX003 (ip), vehicle: saline) 105 % of control.

For the molecule `CC(=O)OCC1OC(n2nnc3c(=O)[nH]cnc32)C(OC(C)=O)C(OC(C)=O)C1OC(C)=O` (stereo not drawn), the T/C is, setting by setting: under setting [1], 96 % of control; (dose: 200.0 mg/kg/injection, schedule: Q01DX001 (ip), vehicle: saline with Tween-80) 102 % of control; (dose: 400.0 mg/kg/injection, schedule: Q01DX001 (ip), vehicle: saline with Tween-80) 94 % of control.

For `O=c1cnn2c(n1)OC1C(O)C(CO)OC12` (stereo not drawn), the T/C is 97 % of control under setting [2], 97 % of control under setting [3] and 93 % of control under setting [4].

On to `CCCCC(N)C(=O)NC(CCSC)C(N)=O` (stereo not drawn) (H-[Nle]-Met-NH2; configuration not given here), for which the T/C (dose: 50.0 mg/kg/injection, schedule: Q01DX005 (ip), vehicle: saline) was 100 % of control; the T/C (dose: 100.0 mg/kg/injection, schedule: Q01DX005 (ip), vehicle: saline) is 105 % of control; the T/C (dose: 200.0 mg/kg/injection, schedule: Q01DX005 (ip), vehicle: saline) is 100 % of control.

In the case of `C=C(C)C1CCC2(CO)C(O)CC3(C)C(CCC4C5(C)CCC(O)C(C)(C)C5CCC43C)C12` (stereo not drawn), the T/C (dose: 15.0 mg/kg/injection, schedule: Q01DX009 (ip), vehicle: Klucel (hydroxypropylcellulose) (HPC)) is 93 % of control; the T/C (dose: 30.0 mg/kg/injection, schedule: Q01DX009 (ip), vehicle: Klucel (hydroxypropylcellulose) (HPC)) is 94 % of control; the T/C (dose: 60.0 mg/kg/injection, schedule: Q01DX009 (ip), vehicle: Klucel (hydroxypropylcellulose) (HPC)) was 86 % of control; the T/C (dose: 120.0 mg/kg/injection, schedule: Q01DX009 (ip), vehicle: Klucel (hydroxypropylcellulose) (HPC)) was 92 % of control.

`COc1ccc(I)c(C=NC2CCCCC2)c1C`: the T/C reads like this: (dose: 50.0 mg/kg/injection, schedule: Q01DX005 (ip), vehicle: distilled water + Tween-80 + alcohol) 98 % of control; (dose: 100.0 mg/kg/injection, schedule: Q01DX005 (ip), vehicle: distilled water + Tween-80 + alcohol) 97 % of control; (dose: 200.0 mg/kg/injection, schedule: Q01DX005 (ip), vehicle: distilled water + Tween-80 + alcohol) 98 % of control.

Turning to `O=P(N1CCCC1)(N1CCCC1)N1CCCC1`, the T/C runs as follows: (dose: 50.0 mg/kg/injection, schedule: Q01DX009 (ip), vehicle: saline) 100 % of control; under setting [5], 102 % of control and 107 % of control; (dose: 200.0 mg/kg/injection, schedule: Q01DX009 (ip), vehicle: saline) 101 % of control; (dose: 400.0 mg/kg/injection, schedule: Q01DX009 (ip), vehicle: saline) 103 % of control.

Regarding `COc1ccc(C(NCCn2cnc3c2c(=O)n(C)c(=O)n3C)c2ccccc2)cc1` (stereo not drawn), the T/C is, setting by setting: (dose: 6.25 mg/kg/injection, schedule: Q01DX005 (ip), vehicle: alkali diluted with saline) 100 % of control; (dose: 12.5 mg/kg/injection, schedule: Q01DX005 (ip), vehicle: alkali diluted with saline) 100 % of control; (dose: 25.0 mg/kg/injection, schedule: Q01DX005 (ip), vehicle: alkali diluted with saline) 96 % of control.

Take `COc1cc2c(cc1OC)C(CO)C1c3cc4c(cc3CCN1C2)OCO4` (stereo not drawn): the T/C runs as follows: (dose: 50.0 mg/kg/injection, schedule: Q04DX003 (ip), vehicle: distilled water + Tween-80) 98 % of control; (dose: 100.0 mg/kg/injection, schedule: Q04DX003 (ip), vehicle: distilled water + Tween-80) 98 % of control; (dose: 200.0 mg/kg/injection, schedule: Q04DX003 (ip), vehicle: distilled water + Tween-80) 96 % of control; (dose: 400.0 mg/kg/injection, schedule: Q04DX003 (ip), vehicle: distilled water + Tween-80) 96 % of control.

As for `CC(C)NCC(O)COc1ccc(O)c(O)c1` (stereo not drawn), the T/C is 100 % of control (dose: 25.0 mg/kg/injection, schedule: Q01DX009 (ip), vehicle: saline) and 123 % of control under setting [5].
